From ChEMBL document CHEMBL3813645, “Design, synthesis of 2,3-disubstitued 4(3H)-quinazolinone derivatives as anti-inflammatory and analgesic agents: COX-1/2 inhibitory activities and molecular docking studies” (Bioorg Med Chem, 2016)

Legend:
[1] = target: T1, Prostaglandin G/H synthase 1 (Ovis aries, UniProt P05979); assay: Inhibition of ovine COX1 using arachidonic acid as substrate preincubated for 5 mins followed by substrate addition by ELISA
T1 sequence (P05979 whole entry): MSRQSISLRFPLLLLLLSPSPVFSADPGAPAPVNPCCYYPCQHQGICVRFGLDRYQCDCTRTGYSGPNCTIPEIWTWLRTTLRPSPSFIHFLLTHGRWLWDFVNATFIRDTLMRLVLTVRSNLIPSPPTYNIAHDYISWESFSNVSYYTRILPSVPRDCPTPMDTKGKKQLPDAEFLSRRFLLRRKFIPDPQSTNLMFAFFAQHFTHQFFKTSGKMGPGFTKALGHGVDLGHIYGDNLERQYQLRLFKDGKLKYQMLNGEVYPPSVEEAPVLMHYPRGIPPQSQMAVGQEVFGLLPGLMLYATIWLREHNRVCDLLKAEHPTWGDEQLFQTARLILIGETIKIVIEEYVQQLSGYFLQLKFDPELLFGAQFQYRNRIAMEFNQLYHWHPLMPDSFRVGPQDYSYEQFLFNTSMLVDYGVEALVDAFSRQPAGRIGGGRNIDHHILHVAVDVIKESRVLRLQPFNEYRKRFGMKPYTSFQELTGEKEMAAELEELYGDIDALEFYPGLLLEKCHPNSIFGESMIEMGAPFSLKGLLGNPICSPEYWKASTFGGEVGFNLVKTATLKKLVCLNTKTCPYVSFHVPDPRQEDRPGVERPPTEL

Rattus norvegicus = assay: Antiinflammatory activity in ip dosed rat carrageenan-induced foot paw edema model measured after 2 hrs by plethysmometric analysis; type: functional
Mus musculus = assay: Analgesic activity in ip dosed albino Swiss mouse assessed as nociceptive response measured after 60 mins by hot plate method; type: functional; settings: 1 h

| SMILES | IC50 [1] [µM] | ED50 (Rattus norvegicus) [mg/kg] | ED50 (Mus musculus) [mg/kg] |
| --- | --- | --- | --- |
| COc1cc(NC(=O)CSc2nc3ccccc3c(=O)n2CCc2ccccn2)cc(OC)c1OC | > 100 | 65.3 | 60.3 |
| O=C(CSc1nc2ccccc2c(=O)n1CCc1ccccn1)c1ccc(F)cc1 | > 100 | 91.2 | 78.1 |
| O=C(CSc1nc2ccccc2c(=O)n1CCc1ccccn1)N/N=C/c1ccccc1 |  | 104 | 54.5 |
| COc1ccc(NC(=O)CSc2nc3ccccc3c(=O)n2CCc2ccccn2)cc1 | > 100 | 81.5 | 111 |
| Cc1ccc(-c2cc(C(F)(F)F)nn2-c2ccc(S(N)(=O)=O)cc2)cc1 [CELECOXIB] |  |  | 71 |
| NNC(=O)CSc1nc2ccccc2c(=O)n1CCc1ccccn1 | > 100 | 74.5 | 40.3 |
| COc1ccc(/C=N/NC(=O)CSc2nc3ccccc3c(=O)n2CCc2ccccn2)cc1 |  | 67.5 | 50.3 |
| O=C(CSc1nc2ccccc2c(=O)n1CCc1ccccn1)NNS(=O)(=O)c1ccccc1 |  | > 200 |  |
| COc1ccc(C(=O)CSc2nc3ccccc3c(=O)n2CCc2ccccn2)cc1 |  | > 200 |  |
| COc1cc(/C=N/NC(=O)CSc2nc3ccccc3c(=O)n2CCc2ccccn2)cc(OC)c1OC |  | > 200 |  |
| O=C(CSc1nc2ccccc2c(=O)n1CCc1ccccn1)NNS(=O)(=O)c1ccc(Br)cc1 |  | > 200 |  |
| COc1ccc(/C=N/NC(=O)CSc2nc3ccccc3c(=O)n2CCc2ccccn2)cc1OC |  | 112 | 78.5 |
| O=C(CSc1nc2ccccc2c(=O)n1CCc1ccccn1)NCc1ccccc1 |  | > 200 |  |
| O=c1c2ccccc2nc(S)n1CCc1ccccn1 | > 100 | 102 | 98.2 |
| NC(=O)CSc1nc2ccccc2c(=O)n1CCc1ccccn1 |  | > 200 |  |
| O=C(O)Cc1ccccc1Nc1c(Cl)cccc1Cl [DICLOFENAC] |  | 112 | 100 |
| O=C(CSc1nc2ccccc2c(=O)n1CCc1ccccn1)Nc1ccc(F)cc1 | > 100 | 50.3 | 12.3 |
| O=C(CSc1nc2ccccc2c(=O)n1CCc1ccccn1)Nc1ccccc1 |  | > 200 |  |
| CCOC(=O)CSc1nc2ccccc2c(=O)n1CCc1ccccn1 |  | > 200 |  |
| O=C(CSc1nc2ccccc2c(=O)n1CCc1ccccn1)c1ccccc1 |  | > 200 |  |
| COc1cc(NC(=O)CCSc2nc3ccccc3c(=O)n2CCc2ccccn2)cc(OC)c1OC | > 100 | 74.2 | 80.3 |
| COc1ccc(S(=O)(=O)NNC(=O)CSc2nc3ccccc3c(=O)n2CCc2ccccn2)cc1OC |  | > 200 |  |
| O=C(CSc1nc2ccccc2c(=O)n1CCc1ccccn1)N/N=C/c1ccc(Cl)cc1 |  | 66.6 | 33.7 |
